Article PMC7259601 (PLoS ONE, 2020)
Like-named read-outs stand apart in the source and are kept apart here.

Legend:
Mouse recombinant KDM1B = target: T1, Mouse recombinant KDM1B (Mus musculus, UniProt Q8CIG3); assay: KDM1B inhibition assay; format: biochemical
T1 construct: gift: Dr. Andrea Mattevi, University of Pavia
Method: Mouse recombinant KDM1B protein was kindly provided by Dr. Andrea Mattevi from the University of Pavia. The biochemical activity assay was carried out at room temperature in a similar manner as for KDM1A but using 50 mM HEPES pH 8.5 as the reaction buffer, but with 10 min of incubation of KDM1B in the presence of dimethylated H3K4 peptide at the KMapp of KDM1B.

KDM1A = KDM1A (Homo sapiens, UniProt O60341); assay: KDM1A inhibition assay (Amplex Red, dimethylH3K4 peptide); format: biochemical; design: purchased BPS Bioscience 50100
Mouse pharmacokinetics = format: in vivo, BALB/c mice; details: for AUC(0-inf): read-out: Plasma AUCinf; for AUC(0-t): read-out: Plasma AUClast
Method: Temperature and humidity were maintained at 22 ± 3 °C and 40-70 %, respectively and illumination was controlled to give a sequence of 12 hr light / dark cycle. The temperature and humidity were recorded by auto-controlled data logger system. All the animals were acclimatized to the experimental conditions for at least three days prior to dosing. All the animals were provided laboratory rodent diet (Vetcare India Pvt. Ltd, Bengaluru) except for overnight before treatment and 2 hr post dose. Reverse osmosis water treated with ultraviolet light was provided ad libitum. Blood samples were collected at 0, 0.05, 0.16, 0.5, 1, 2, 4, 8 & 24 hr for IV and for PO at 0, 0.25, 0.5, 1, 2, 4, 6, 8 and 24 hr post dosing. Each mouse was assigned to one of 3 subgroups and sampled at 3 timepoints. Animals were euthanized by using excess CO2 asphyxiation. The study was conducted at Sai Life Sciences Limited, Pune, India, in accordance with the guidelines of the Institutional Animal Ethics Committee (IAEC) and in accordance with the requirement of Committee for the Purpose of Control and Supervision of Experiments on Animals (CPCSEA), India. Prior approval was obtained before initiation of the study (IAEC Protocol No. IAEC/PRT/012-10; IAEC-CPCSEA).
Plasma was harvested from the blood samples harvested in K2EDTA containing tubes by centrifugation at 4000 rpm for 10 min at 4 ± 2 °C and stored below -70 °C until bioanalysis. Brain tissue was homogenized with phosphate buffer saline (pH 7.4). Total homogenate volume was thrice the tissue weight. All samples were processed for analysis by precipitation using Imipramine as internal standard and analyzed with partially validated LC-MS/MS method. Pharmacokinetic parameters were calculated using the non-compartmental analysis tool of WinNonlin® Enterprise software (Pharsight Corp., USA; version 5.2).
Compound levels from 3 samples per timepoint (for a given dose and route of administration), were used to calculated pharmacokinetic parameters using the non-compartmental analysis tool of WinNonlin® Enterprise software (Pharsight Corp., USA; version 5.2).

[1] = test system: KATP channel (antagonist radioligand); assay: CEREP Diversity Panel; format: binding; design: dose or concentration left out as unconfirmed
Method: (§1) […]. MAO-A inhibition at 10 μM was 37%, in line with internal data.

[2] = test system: alpha 2 (non-selective) (antagonist radioligand); assay: CEREP Diversity Panel; format: binding; design: dose or concentration left out as unconfirmed
Method: as §1

[3] = test system: NMDA (antagonist radioligand); assay: CEREP Diversity Panel; format: binding; design: dose or concentration left out as unconfirmed
Method: as §1

[4] = test system: BZD (central) (agonist radioligand); assay: CEREP Diversity Panel; format: binding; design: dose or concentration left out as unconfirmed
Method: as §1

[5] = test system: PCP (antagonist radioligand); assay: CEREP Diversity Panel; format: binding; design: dose or concentration left out as unconfirmed
Method: as §1

[6] = test system: P2X (agonist radioligand); assay: CEREP Diversity Panel; format: binding; design: dose or concentration left out as unconfirmed
Method: as §1

[7] = test system: kainate (agonist radioligand); assay: CEREP Diversity Panel; format: binding; design: dose or concentration left out as unconfirmed
Method: as §1

[8] = test system: Na+ channel (site 2) (antagonist radioligand); assay: CEREP Diversity Panel; format: binding; design: dose or concentration left out as unconfirmed
Method: as §1

[9] = test system: Ca 2+ channel (L, diltiazem site) (benzothiazepines) (antagonist radioligand); assay: CEREP Diversity Panel; format: binding; design: dose or concentration left out as unconfirmed
Method: as §1

[10] = test system: opioid (non-selective) (antagonist radioligand); assay: CEREP Diversity Panel; format: binding; design: dose or concentration left out as unconfirmed
Method: as §1

[11] = test system: AMPA (agonist radioligand); assay: CEREP Diversity Panel; format: binding; design: dose or concentration left out as unconfirmed
Method: as §1

I1 (agonist radioligand) = assay: CEREP Diversity Panel; format: binding; design: dose or concentration left out as unconfirmed
Method: as §1

[12] = test system: KV channel (antagonist radioligand); assay: CEREP Diversity Panel; format: binding; design: dose or concentration left out as unconfirmed
Method: as §1

[13] = test system: P2Y (agonist radioligand); assay: CEREP Diversity Panel; format: binding; design: dose or concentration left out as unconfirmed
Method: as §1

[14] = test system: 5-HT (non-selective) (agonist radioligand); assay: CEREP Diversity Panel; format: binding; design: dose or concentration left out as unconfirmed
Method: as §1

[15] = test system: Y (non-selective) (agonist radioligand); assay: CEREP Diversity Panel; format: binding; design: dose or concentration left out as unconfirmed
Method: as §1

[16] = test system: Ca 2+ channel (L, verapamil site) (phenylalkylamine) (antagonist radioligand); assay: CEREP Diversity Panel; format: binding; design: dose or concentration left out as unconfirmed
Method: as §1

[17] = test system: SKCa channel (antagonist radioligand); assay: CEREP Diversity Panel; format: binding; design: dose or concentration left out as unconfirmed
Method: as §1

[18] = test system: GABA (non-selective) (agonist radioligand); assay: CEREP Diversity Panel; format: binding; design: dose or concentration left out as unconfirmed
Method: as §1

[19] = test system: Ca 2+ channel (L, dihydropyridine site) (antagonist radioligand); assay: CEREP Diversity Panel; format: binding; design: dose or concentration left out as unconfirmed
Method: as §1

[20] = test system: s (non-selective) (agonist radioligand); assay: CEREP Diversity Panel; format: binding; design: dose or concentration left out as unconfirmed
Method: as §1

[21] = male, mouse, plasma, BALB/c mice, intravenous 2 mg/kg
[22] = male, mouse, plasma, BALB/c mice, oral 10 mg/kg

T1 sequence (Q8CIG3 whole entry): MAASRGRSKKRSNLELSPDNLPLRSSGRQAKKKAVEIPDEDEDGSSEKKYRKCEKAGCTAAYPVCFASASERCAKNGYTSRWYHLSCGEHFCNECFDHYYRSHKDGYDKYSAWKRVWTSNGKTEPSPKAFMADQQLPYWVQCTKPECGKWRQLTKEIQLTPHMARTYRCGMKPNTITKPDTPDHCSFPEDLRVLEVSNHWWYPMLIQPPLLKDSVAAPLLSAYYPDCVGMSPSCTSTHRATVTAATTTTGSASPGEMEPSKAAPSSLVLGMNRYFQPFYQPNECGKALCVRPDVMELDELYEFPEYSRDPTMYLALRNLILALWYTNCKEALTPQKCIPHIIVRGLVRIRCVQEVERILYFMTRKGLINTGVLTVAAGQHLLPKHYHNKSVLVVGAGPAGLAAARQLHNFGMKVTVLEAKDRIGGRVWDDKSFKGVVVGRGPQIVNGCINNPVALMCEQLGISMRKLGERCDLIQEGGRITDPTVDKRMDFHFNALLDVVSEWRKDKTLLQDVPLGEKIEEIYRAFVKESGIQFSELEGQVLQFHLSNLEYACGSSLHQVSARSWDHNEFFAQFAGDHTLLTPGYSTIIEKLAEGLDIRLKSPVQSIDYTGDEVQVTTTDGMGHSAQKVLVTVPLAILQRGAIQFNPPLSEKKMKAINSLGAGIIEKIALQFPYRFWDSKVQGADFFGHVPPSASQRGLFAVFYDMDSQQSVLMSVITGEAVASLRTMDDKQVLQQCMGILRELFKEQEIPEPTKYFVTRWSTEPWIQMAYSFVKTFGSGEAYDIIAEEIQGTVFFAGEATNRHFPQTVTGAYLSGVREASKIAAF

Compound `Nc1nnc(CN[C@@H]2C[C@H]2c2ccc(OCc3ccccc3)cc2)o1` [ORY-2001, vafidemstat] has an inhibition at 10 µM (Mouse recombinant KDM1B) of 7%, an IC50 (KDM1A; mean IC50 KDM1A, mean ± SD, minimum 2 independent experiments) of 0.101 ± 0.04 µM and an IC50 (KDM1A; rKDM1A, N = 1, n = 2, read-out: IC50 KDM1A, representative dose-response curve) of 0.105 µM. The “Brain Cmax” value (Mouse pharmacokinetics; BALB/c mice, oral 10 mg/kg) was 5804 ng/g, the Fpo (Mouse pharmacokinetics; BALB/c mice, oral 10 mg/kg) was 75% and the AUC (Mouse pharmacokinetics; male, mouse, plasma, po, Balb/c mice, p.o. 10 mg/kg, read-out: area-under-the-curve (AUC) (converted)) was 17200 ng·h/mL. For the same compound, the clearance (Mouse pharmacokinetics; [21]) was 6.8 mL/min/kg, the half-life (Mouse pharmacokinetics; [21]) was 2.05 h and the AUC(0-inf) (Mouse pharmacokinetics; [21]) was 4880 ng·h/mL. It also gave an AUC(0-t) (Mouse pharmacokinetics; [21]) of 4570 ng·h/mL, a Vd (Mouse pharmacokinetics; male, mouse, plasma, BALB/c mice, intravenous 2 mg/kg, read-out: Vss) of 1.1 L/kg and a Cmax (Mouse pharmacokinetics; [22]) of 4160 ng/mL. For the same compound, the Tmax (Mouse pharmacokinetics; [22]) was 0.25 h, the half-life (Mouse pharmacokinetics; [22]) was 2.22 h and the AUC(0-inf) (Mouse pharmacokinetics; [22]) was 17200 ng·h/mL. The AUC(0-t) (Mouse pharmacokinetics; [22]) was 17200 ng·h/mL, the “% inhibition” value [1] was 3% and the “% inhibition” value [2] was 3%. For the same compound, the “% inhibition” value [3] was 6%, the “% inhibition” value [4] was -21% and the “% inhibition” value [5] was 1%. The “% inhibition” value [6] was 3%, the “% inhibition” value [7] was 2% and the “% inhibition” value [8] was 12%. The “% inhibition” value [9] was 0%, the “% inhibition” value [10] was -2% and the “% inhibition” value [11] was -2%. For the same compound, the “% inhibition” value (I1 (agonist radioligand)) was 26%, the “% inhibition” value [12] was -4% and the “% inhibition” value [13] was 5%. For the same compound, the “% inhibition” value [14] was 5%, the “% inhibition” value [15] was -28% and the “% inhibition” value [16] was 5%. For the same compound, the “% inhibition” value [17] was -11%, the “% inhibition” value [18] was 6% and the “% inhibition” value [19] was -1%. The “% inhibition” value [20] was 9%.
